Test results from paper PMC4645123, “Catestatin attenuates endoplasmic reticulum induced cell apoptosis by activation type 2 muscarinic acetylcholine receptor in cardiac ischemia/reperfusion” (Scientific Reports, 2015).

Legend:
H9c2 cardiomyoblasts = assay: Apoptosis (cleaved caspase-3 staining) in cells under A/R or ER stress inducers; assay type: cell-based, rat; settings: PD98059 20 μM or wortmannin 10 nM for 30 min, then CST 100 nM 30 min
Method: H9c2 rat cardiomyoblasts or neonatal cardiomyocytes were cultured in DMEM with 10% fetal bovine serum (FBS) and 1% penicillin/streptomycin at 37 °C, 5% CO2. Medium was changed to fresh medium (serum-free), and cells were cultured under anoxia with 95% N2 and 5% CO2 for 12 h at 37 °C, then incubated in a standard incubator for 4 h (A/R)[38]. […] page 1: Catestatin attenuates endoplasmic reticulum induced cell apoptosis by activation type 2 muscarinic acetylcholine receptor in cardiac ischemia/reperfusion Feng Liao1*, Yang Zheng1*, Junyan Cai1, Jinghui Fan1, Jing Wang1, Jichun Yang1,2, Qinghua Cui1,2, Guoheng Xu1, Chaoshu Tang1, Bin Geng1,2 1. Department of Physiology and Pathophysiology, School of Basic Medical Science, Peking University, P.R. China. 2. Center for Noncoding RNA Medicine, Peking University Health Science Center Online Methods 1. Western blot analysis Cultured H9c2 cells or rat hearts were lysed in RIPA lysis buffer (Cell Signaling). Proteins were denatured and 50 μg protein was loaded and isolated by SDS-PAGE electrophoresis, then transferred to a nitrocellulose membrane. […] The antigens were detected by the chemiluminescence method (ECL western blot detection kit, Applygen) with horseradish peroxidase-linked anti-mouse or anti-rabbit secondary antibody. […] Images were captured by fluorescence microscopy and apoptotic cells were analyzed by use of Image-Pro Plus. […]

isolated heart = assay: Langendorff-perfused heart, global ischemia/reperfusion (I/R) with CST pretreatment; set-up: species or system rat; settings: AF-DX116 pretreating for 20 min before CP, then I/R
Method: Rats fed a standard diet were heparinized (200 IU) and anesthetized with sodium pentobarbital (50 mg/kg, intraperitoneally). Hearts were excised and rapidly moved to a Langendorff perfusion system as described. After 30-min stabilization, hearts underwent 30-min normoxia, zero-flow global ischemia for 30 min, followed by 60-min reperfusion (I/R group). For the CP group, CST (100 nM) was infused for 15 min before ischemia (Fig. 1A). Cardiac function including left ventricular end diastolic pressure (LVEDP), LV systolic pressure (LVSP), and maximal and minimal LV pressure development (±dp/dtmax) were recorded. […] Images in each slice were analyzed by image pro plus software. The volume of infarcted tissue (white) and the risk zone (total) was then calculated by each area […] slice thickness and summing the results. The infarct size was expressed as the percentage of the risk zone[36]. Total 12 rats were sacrificed for the infarct size assay. Other rats, while finished I/R procedure, the apex of heart (about 100 mg) was quickly removed for western blot assay. The residual heart were cut about 5 mm high (from the site of apex), embedded with OCT then the frozen slice were prepared for apoptosis staining (Methods of western blot and apoptosis assay are available in the Supplementary methods online).

H9c2 cells = assay: cAMP assay (cAMP-Glo Max Assay Kit); assay type: cell-based, rat; settings: for effect of antagonist on CST lowering of isoproterenol-induced cAMP / effect of antagonist on CST lowering of forskolin-induced cAMP: AF-DX116 100 nM or himbacine 1 μM 20 min; for effect of antagonist on CST lowering of isoproterenol-induced cAMP: then CST 50 nM with isoproterenol 1 μM; for effect of antagonist alone on increased cAMP level with isoproterenol: AF-DX116 100 nM or himbacine 1 μM, 20 min pretreatment, isoproterenol 1 μM; for effect of antagonist on CST lowering of forskolin-induced cAMP: pirenzepine 1 μM, then CST 50 nM with forskolin 100 μM
Method: H9c2 cells were subcultured at 1 x 10^4 cells in 96-well plates. Cell were pretreated with […]
pirenzepine (1 μM), AF-DX116 (100 nM) or himbacine (1 μM) for 20 min, then incubated with CST (50 nM) or carbamoylcholine (100 μM) along with isoproterenol (1 μM) or forskolin (100 μM) for 30 min. Cell underwent cAMP assay with the cAMP-Glo Max Assay

M2 receptors = settings: no reference given; cited from earlier work
Method: To investigate the interaction of CST with M2 receptor and as an endogenous ligand, we used radioactive isotope [^125-I]-labeled CST (0.4 μM) as a ligand, and N-methylscopolamine (NMS:0.045 nM to 0.3 μM) as a “cold” ligand were co-incubated with membrane protein (200 μg) in H9c2 cardiomyblasts.

[1] = system: ischemic-reperfused rat heart; settings: peptide 100 nM treatment for 2 h during reperfusion phase; cited from earlier work
Method: Firstly we identified the endogenous CST reducing after I/R, but its precursor ChgA expression were no changes. That means increased enzymes (which catalyzed ChgA to generate CST) activity during I/R, although the enzymes were not identified until now. CST pretreatment compensated to endogenous CST decrease, thus lowered the infarct size and improved cardiac function in rats under I/R, which agreed with studies of CST post-conditioning[16][17]. However, human wild type CST (100 nM) treatment for 2 h during reperfusion phase increased, but Gly^364Ser variant peptide lowered infarct size; becaus ...

M2 receptor = settings: read-out: KD values, binding ability to M2 receptor; cited from earlier work
From the text: Muscarinic receptor expression is abundant in ventricular muscle. Acetylcholine has protective role in cardiac I/R in vitro, but it is non-selective ligand and activates all cholinergic receptor subtype, which limited its application due to enormous side effects. Here we identified that CST is a selective ligand of M2 receptor with high affinity and its intracellular signal (cAMP, PI3 K and ERK1/2) is consistent with M2 receptor agonist.

[2] = molecular target: T1, M2 muscarinic acetylcholine receptor (Rattus norvegicus, UniProt P10980); assay: radioligand competition binding
T1 chain: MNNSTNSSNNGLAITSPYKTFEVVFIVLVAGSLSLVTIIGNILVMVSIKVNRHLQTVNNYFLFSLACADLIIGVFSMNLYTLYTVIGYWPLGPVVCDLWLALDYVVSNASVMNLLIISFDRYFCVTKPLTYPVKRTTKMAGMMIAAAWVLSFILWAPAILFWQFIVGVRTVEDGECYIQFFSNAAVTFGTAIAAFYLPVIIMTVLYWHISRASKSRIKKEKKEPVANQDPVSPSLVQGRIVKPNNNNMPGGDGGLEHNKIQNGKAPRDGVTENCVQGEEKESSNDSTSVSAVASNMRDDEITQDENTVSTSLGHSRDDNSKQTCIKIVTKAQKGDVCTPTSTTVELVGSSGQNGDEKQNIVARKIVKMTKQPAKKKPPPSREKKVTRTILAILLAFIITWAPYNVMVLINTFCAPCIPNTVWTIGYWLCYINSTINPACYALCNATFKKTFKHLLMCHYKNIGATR

[3] = molecular target: T1, M2 muscarinic acetylcholine receptor; assay: radioligand binding (Scatchard)

COc1cccc(-c2cc(=O)c3ccccc3o2)c1N [PD98059]
effect of inhibitor on CST protection on cell apoptosis (H9c2 cardiomyoblasts): reversed

CCN(CC)CC1CCCCN1CC(=O)N1c2ccccc2C(=O)Nc2cccnc21 (centres unmarked) [AF-DX116, Otenzepad]
effect on the protective effects of CP on infarct size, LDH leakage and cTNI level (isolated heart): blocked
effect of antagonist on CST lowering of isoproterenol-induced cAMP (H9c2 cells): blocked
effect of antagonist alone on increased cAMP level with isoproterenol (H9c2 cells): did not affect
effect of antagonist on CST lowering of forskolin-induced cAMP (H9c2 cells): blocked
IC50 (M2 receptors): 50 nM

C[C@@H]1OC(=O)[C@H]2C[C@H]3CCCC[C@@H]3[C@@H](/C=C/[C@H]3CCC[C@H](C)N3C)[C@@H]12 [himbacine]
effect of antagonist on CST lowering of isoproterenol-induced cAMP (H9c2 cells): blocked
effect of antagonist alone on increased cAMP level with isoproterenol (H9c2 cells): did not affect
effect of antagonist on CST lowering of forskolin-induced cAMP (H9c2 cells): blocked

C[N+](C)(C)CCOC(N)=O [carbamoylcholine]
cAMP level induced by isoproterenol (H9c2 cells; CST 50 nM or carbamoylcholine 100 μM with isoproterenol 1 μM for 30 min): lowered

COC[C@H]1OC(=O)c2coc3c2[C@@]1(C)C1=C(C3=O)[C@@H]2CCC(=O)[C@@]2(C)C[C@H]1OC(C)=O [wortmannin]
effect of inhibitor on CST protection on cell apoptosis (H9c2 cardiomyoblasts): reversed

Gly^364Ser variant peptide: Gly364Ser variant of human catestatin
infarct size [1]: lowered

COc1ccc2cc3[n+](cc2c1OC)CCc1cc2c(cc1-3)OCO2 [Berberine]
Kd (M2 receptor): 5400 nM

B1: Catestatin (peptide)
chain: SSMKLSFRARGYGFRGPGPQL
modifications: AF-DX116 50 nM
IC50 [2]: 36 nM
Kd [3]: 45.8 nM

B2: Catestatin (peptide)
chain: SSMKLSFRARGYGFRGPGPQL
IC50 [2]: 25.7 nM
Kd [3]: 18.6 nM
